Reference: patent US20100261708A1 (BOEHRINGER INGELHEIM INTERNATIONAL GMBH, priority 2007, published 2010)
Where two headings read alike, the source gives them in different places.

Target: T1, human CB2R (Homo sapiens, UniProt P34972)
T1 construct: host or cells: CHO cells
Assay: CB2R mediated modulation of cAMP synthesis
Assay type: cell-based
Description: B. CB2R Mediated Modulation of cAMP Synthesis:
Compounds of the invention were evaluated for their CB2 agonist or inverse agonistic activity in accordance with the following experimental method.
CHO cells expressing human CB2R (Euroscreen) were plated at a density of 5000 cells per well in 384 well plates and incubated overnight at 37° C. After removing the media, the cells were treated with test compounds diluted in stimulation buffer containing 1 mM IBMX, 0.25% BSA and 10 uM Forskolin. The assay was incubated for 30 minutes at 37° C. Cells were lysed and the cAMP concentration was measured using DiscoverX-XS cAMP kit, following the manufacturer's protocol. In this setting, agonists will decrease forskolin induced production of cAMP while inverse agonists will further increase forskolin induced production of cAMP. EC50 of agonists were calculated as follows. The maximal amount of cAMP produced by forskolin compared to the level of cAMP inhibited by 1 uM CP55940 is defined as 100%. […] Data was analyzed using a four-parameter logistic model. (Model 205 of XLfit 4.0).

T1 sequence (P34972 whole entry): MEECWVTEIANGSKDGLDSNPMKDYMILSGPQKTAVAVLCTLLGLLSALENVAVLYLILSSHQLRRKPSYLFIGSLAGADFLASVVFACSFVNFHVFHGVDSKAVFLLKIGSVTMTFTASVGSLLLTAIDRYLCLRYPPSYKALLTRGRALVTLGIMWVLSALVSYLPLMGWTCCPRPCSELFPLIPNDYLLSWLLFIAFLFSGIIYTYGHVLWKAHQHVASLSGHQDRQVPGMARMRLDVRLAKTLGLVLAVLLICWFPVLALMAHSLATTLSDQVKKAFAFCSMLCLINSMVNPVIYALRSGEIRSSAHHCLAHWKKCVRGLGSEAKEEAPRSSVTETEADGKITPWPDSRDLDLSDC

EC50 (read-out: CB2 CAMP @EC50) [nM] | Structure (SMILES) | EC50 [nM]
 | CC(C)(C)c1ccc2oc(N3CCCN(C(=O)c4ccc(Cl)cc4)CC3)nc2c1 [Example 3, [4-(5-tert-Butyl-benzooxazol-2-yl)-[1,4]diazepan-1-yl]-(4-chloro-phenyl)-methanone] | 0.14
 | O=C(C1CCOCC1)N1CCCN(c2nc3cc(C(F)(F)F)ccc3s2)CC1 [Example 65] | 35
2 | Cc1ccc(Cl)c2sc(N3CCCN(C(=O)N4CCOCC4)CC3)nc12 [Example 39, [4-(7-Chloro-4-methyl-benzothiazol-2-yl)-[1,4]diazepan-1-yl]-morpholin-4-yl-methanone] | 
217 | O=C(C1CCOCC1)N1CCCN(c2nc(-c3ccccc3)cs2)CC1 [Example 53, [4-(4-Phenyl-thiazol-2-yl)-[1,4]diazepan-1-yl]-(tetrahydro-pyran-4-yl)-methanone] | 
14 | CCC(C)c1cc(NC(=O)N2CCCN(c3ncc(C(F)(F)F)cc3Cl)CC2)n(C)n1 (stereo not shown) [Example 68, 4-(3-Chloro-5-trifluoromethyl-pyridin-2-yl)-[1,4]diazepane-1-carboxylic acid (5-sec-butyl-2-methyl-2H-pyrazol-3-yl)-amide] | 
21 | CC(C)(C)SCCNC(=O)N1CCCN(c2ncc(C(F)(F)F)cc2Cl)CC1 [Example 15, 4-(3-Chloro-5-trifluoromethyl-pyridin-2-yl)-[1,4]diazepane-1-carboxylic acid (2-tert-butylsulfanyl-ethyl)-amide] | 
30 | Cc1csc(NC(=O)N2CCCN(c3ncc(C(F)(F)F)cc3Cl)CC2)n1 [Example 6, 4-(3-Chloro-5-trifluoromethyl-pyridin-2-yl)-[1,4]diazepane-1-carboxylic acid (4-methyl-thiazol-2-yl)-amide] | 
5 | O=C(c1ccc(Cl)cc1)N1CCCN(c2nc(-c3ccccc3)ns2)CC1 [Example 11, (4-Chloro-phenyl)-[4-(3-phenyl-[1,2,4]thiadiazol-5-yl)-[1,4]diazepan-1-yl]-methanone] | 
45.2 | Cc1csc2ncnc(N3CCCN(C(=O)N4CCOCC4)CC3)c12 [Example 86, [4-(5-Methyl-thieno[2,3-d]pyrimidin-4-yl)-[1,4]diazepan-1-yl]-morpholin-4-yl-methanone] | 
500 | Cn1nc(C(C)(C)C)cc1NC(=O)N1CCCN(c2ncc(Cl)cc2Cl)CC1 [Example 28, 4-(3,5-Dichloro-pyridin-2-yl)-[1,4]diazepane-1-carboxylic acid (5-tert-butyl-2-methyl-2H-pyrazol-3-yl)-amide] | 
53 | Cc1cc(C)c2sc(N3CCCN(C(=O)C4CCOCC4)CC3)nc2c1 [Example 47, [4-(5,7-Dimethyl-benzothiazol-2-yl)-[1,4]diazepan-1-yl]-(tetrahydro-pyran-4-yl)-methanone] | 
 | CC(C)(C)c1cc(NC(=O)N2CCCN(c3ncc(Cl)cc3Cl)CC2)no1 [Example 21, 4-(3,5-Dichloro-pyridin-2-yl)-[1,4]diazepane-1-carboxylic acid (5-tert-butyl-isoxazol-3-yl)-amide] | 44
40 | N#Cc1cnc(N2CCCN(C(=O)C3CCOCC3)CC2)s1 [Example 34, 2-[4-(Tetrahydro-pyran-4-carbonyl)-[1,4]diazepan-1-yl]-thiazole-5-carbonitrile] | 
110 | Cc1ccc2nc(N3CCCN(C(=O)C4CCOCC4)CC3)sc2c1 [Example 64, [4-(6-Methyl-benzothiazol-2-yl)-[1,4]diazepan-1-yl]-(tetrahydro-pyran-4-yl)-methanone] | 
204 | Cc1c(Cl)ccc2sc(N3CCCN(C(=O)N4CCOCC4)CC3)nc12 [Example 38, [4-(5-Chloro-4-methyl-benzothiazol-2-yl)-[1,4]diazepan-1-yl]-morpholin-4-yl-methanone] | 
3 | Cc1c(Cl)ccc2sc(N3CCCN(C(=O)C4CCOCC4)CC3)nc12 [Example 48, [4-(5-Chloro-4-methyl-benzothiazol-2-yl)-[1,4]diazepan-1-yl]-(tetrahydro-pyran-4-yl)-methanone] | 
221 | Cc1cc(Cl)cc2sc(N3CCCN(C(=O)C4CCOCC4)CC3)nc12 [Example 42, [4-(6-Chloro-4-methyl-benzothiazol-2-yl)-[1,4]diazepan-1-yl]-(tetrahydro-pyran-4-yl)-methanone] | 
0.017 | CC(C)(C)c1ccc2oc(N3CCCN(C(=O)C4CCC(F)(F)CC4)CC3)nc2c1 [Example 4, [4-(5-tert-Butyl-benzooxazol-2-yl)-[1,4]diazepan-1-yl]-(4,4-difluoro-cyclohexyl)-methanone] | 
114 | Cc1ccc(Cl)c2sc(N3CCCN(C(=O)C4CCOCC4)CC3)nc12 [Example 43, [4-(7-Chloro-4-methyl-benzothiazol-2-yl)-[1,4]diazepan-1-yl]-(tetrahydro-pyran-4-yl)-methanone] | 
14 | O=C(C1CCOCC1)N1CCCN(c2ncc(CN3CCOCC3)s2)CC1 [Example 54, [4-(5-Morpholin-4-ylmethyl-thiazol-2-yl)-[1,4]diazepan-1-yl]-(tetrahydro-pyran-4-yl)-methanone] | 
 | Cc1nc(NC(=O)N2CCCN(c3ncc(C(F)(F)F)cc3Cl)CC2)sc1C(C)(C)C [Example 14, 4-(3-Chloro-5-trifluoromethyl-pyridin-2-yl)-[1,4]diazepane-1-carboxylic acid (5-tert-butyl-4-methyl-thiazol-2-yl)-amide] | 0.94
77 | O=C(C1CCOCC1)N1CCCN(c2nc3cc(-c4ccccc4)ccc3o2)CC1 [Example 71, [4-(5-Phenyl-benzooxazol-2-yl)-[1,4]diazepan-1-yl]-(tetrahydro-pyran-4-yl)-methanone] | 
10 | O=C(C1CCC(F)(F)CC1)N1CCCN(c2nc3cc(C(F)(F)F)ccc3o2)CC1 [Example 67, (4,4-Difluoro-cyclohexyl)-[4-(5-trifluoromethyl-benzooxazol-2-yl)-[1,4]diazepan-1-yl]-methanone] | 
19 | O=C(C1CCC(O)CC1)N1CCCN(c2nc3cc(C(F)(F)F)ccc3o2)CC1 (stereo not shown) [Example 32, (4-Hydroxy-cyclohexyl)-[4-(5-trifluoromethyl-benzooxazol-2-yl)-[1,4]diazepan-1-yl]-methanone] | 
 | O=C(c1ccc(Cl)cc1)N1CCCN(c2nc3ccc(Cl)cc3s2)CC1 [Example 9, [4-(6-Chloro-benzothiazol-2-yl)-[1,4]diazepan-1-yl]-(4-chloro-phenyl)-methanone] | 30
43 | O=C(C1CCOCC1)N1CCCN(c2nc3cc(C(F)(F)F)ccc3o2)CC1 [Example 5, (Tetrahydro-pyran-4-yl)-[4-(5-trifluoromethyl-benzooxazol-2-yl)-[1,4]diazepan-1-yl]-methanone] | 
 | CCc1cnc(N2CCCN(C(=O)Nc3cc(C(C)(C)C)on3)CC2)nc1 [Example 79, 4-(5-Ethyl-pyrimidin-2-yl)-[1,4]diazepane-1-carboxylic acid (5-tert-butyl-isoxazol-3-yl)-amide] | 6
445 | Cc1ccc(C)c2sc(N3CCCN(C(=O)C4CCOCC4)CC3)nc12 [Example 46, [4-(4,7-Dimethyl-benzothiazol-2-yl)-[1,4]diazepan-1-yl]-(tetrahydro-pyran-4-yl)-methanone] | 
54 | FC(F)(F)c1cnc(N2CCCN(c3nc4cc(C(F)(F)F)ccc4o3)CC2)c(Cl)c1 [Example 49, 2-[4-(3-Chloro-5-trifluoromethyl-pyridin-2-yl)-[1,4]diazepan-1-yl]-5-trifluoromethyl-benzooxazole] | 

Structure (SMILES) | EC50 (read-out: CB2 CAMP @EC50) [nM] | EC50 [nM]
Cc1ccnc(N2CCCN(C(=O)Nc3cc(C(C)(C)C)on3)CC2)n1 [Example 81, 4-(4-Methyl-pyrimidin-2-yl)-[1,4]diazepane-1-carboxylic acid (5-tert-butyl-isoxazol-3-yl)-amide] | 344 | 
O=C(N1CCOCC1)N1CCCN(c2nc3cc(Cl)ccc3o2)CC1 [Example 72, [4-(5-Chloro-benzooxazol-2-yl)-[1,4]diazepan-1-yl]-morpholin-4-yl-methanone] | 490 | 
CC(C)(C)c1cc(NC(=O)N2CCCN(c3nccc(C(F)(F)F)n3)CC2)no1 [Example 23, 4-(4-Trifluoromethyl-pyrimidin-2-yl)-[1,4]diazepane-1-carboxylic acid (5-tert-butyl-isoxazol-3-yl)-amide] | 333 | 
O=C(C1CCOCC1)N1CCCN(c2nc3ccc(Cl)cc3o2)CC1 [Example 70, [4-(6-Chloro-benzooxazol-2-yl)-[1,4]diazepan-1-yl]-(tetrahydro-pyran-4-yl)-methanone] | 180 | 
O=C(N1CCCN(c2nc3ccccc3[nH]2)CC1)N1CCS(=O)(=O)CC1 [Example 56, [4-(1H-Benzoimidazol-2-yl)-[1,4]diazepan-1-yl]-(1,1-dioxo-1λ^6-thiomorpholin-4-yl)-methanone] | 327 | 
